This is an account of results in patent US7332507B2, “3-substituted quinuclidines and their use” (Neurosearch A/S, priority 2002, dated 2008).

As usually defined, the IC50 is the concentration at which inhibition is half-maximal. A low value points to higher potency.

The target in this assay is T1, α7-subtype of nicotinic receptors (Rattus norvegicus, UniProt Q05941).
T1 construct: Cerebral cortices from male Wistar rats (150-250 g) are homogenised; from tissue; host or cells: rat cerebral cortex membrane homogenate (male Wistar rats)
The experiment in a line: In vitro inhibition of 3H-α-bungarotoxine binding in rat brain. Conditions: rat cerebral cortex homogenate; 3H-α-bungarotoxine 2 nM; 2 hours at 37° C.

Structures can show the parent of a compound that is named as a salt.

T1 sequence (Q05941 23-502): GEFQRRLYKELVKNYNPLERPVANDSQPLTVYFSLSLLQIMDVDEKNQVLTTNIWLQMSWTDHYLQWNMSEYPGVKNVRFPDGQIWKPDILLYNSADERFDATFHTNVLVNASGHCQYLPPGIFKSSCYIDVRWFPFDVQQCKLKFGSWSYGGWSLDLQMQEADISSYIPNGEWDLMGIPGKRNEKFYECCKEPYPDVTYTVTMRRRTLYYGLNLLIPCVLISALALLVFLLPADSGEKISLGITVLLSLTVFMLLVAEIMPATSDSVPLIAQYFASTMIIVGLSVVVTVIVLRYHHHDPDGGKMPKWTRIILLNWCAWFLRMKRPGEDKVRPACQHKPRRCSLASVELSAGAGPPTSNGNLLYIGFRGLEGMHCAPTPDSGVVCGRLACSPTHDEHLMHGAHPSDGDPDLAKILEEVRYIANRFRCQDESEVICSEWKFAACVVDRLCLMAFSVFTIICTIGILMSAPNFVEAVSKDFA

`c1ccc2c(c1)ncn2C1CN2CCC1CC2` (racemic) [Compound A1, (±)-3-(1-Benzimidazolyl)-quinuclidine fumaric acid salt]: the IC50 is 400 nM.
